# Tested on: patients with biopsy-proven NASH with fibrosis and no cirrhosis
# Assay: EMMINENCE Phase 2b trial, liver histology at 12 months
# Assay type: in vivo, human
# Settings: for subjects showing NAS histological improvement: PNPLA3 rs738409-G both copies (GG genotype)
# Procedure: embodiments, the histological features are measured by a NAFLD Activity Score (NAS). The scoring system comprised 14 histological features, 4 of which are evaluated semi-quantitatively: steatosis (0-3), lobular inflammation (0-2), hepatocellular ballooning (0-2), and fibrosis (0-4). Another nine features are recorded as present or absent. A liver biopsy of the subject is formalin-fixed and paraffin-embedded. Serial sections of the liver biopsy are hematoxylin and eosin (H&E) stained. The liver biopsy stained sections are examined for NAS scores. For example, hepatocellular ballooning is graded from 0 to 2 (0: normal hepatocytes with cuboidal shape and pink eosinophilic cytoplasm; 1: presence of clusters of hepatocytes with a rounded shape and pale cytoplasm usually reticulated. Lobular inflammation is defined as a focus of two or more inflammatory cells within the lobule. Foci are counted at 20 magnification (0: none; 1: 2 foci per 20; 2: >2 foci per 20).
# Study Design: EMMINENCE was a randomized, double-blind evaluation of three oral daily doses of MSDC-0602K (62.5 mg, 125 mg and 250 mg) or placebo given for 12 months to adult patients with biopsy-proven NASH with fibrosis and no cirrhosis. The primary efficacy endpoint was assessed at 12 months. Clinic visits were conducted at baseline, 1, 2, 3, 6, 9, and 12 months, followed 2 weeks later by a safety visit. An interim analysis of safety and efficacy not related to the primary and secondary endpoints was conducted when 6 month data were available for 328 patients (see Example 5, above.) Interim results were provided only as summary statistics to avoid any unmasking of the study team or sponsor.
# Participants: Eligible patients were at least 18 years old with NASH (NAS≥4; score ≥1 in each component [steatosis, ballooning, inflammation]) with F1 to F3 fibrosis on liver biopsy taken between 9 months prior to screening and randomization according to a central histopathologist.
# If no usable liver biopsy was available within 9 months prior to screening, a percutaneous liver biopsy was performed in patients with AST≥20 U/L and FibroScan CAP score ≥270 db/m and kPa≥8.5. Digitized slides were read by a single expert histopathologist according to NASH Clinical Research Network criteria. Baseline biopsies were read first for study qualification and a second time mixed randomly among 12-month biopsies. Fasting blood samples for routine central laboratory analyses were collected at each visit, and frozen samples collected at selected visits for biomarker assays.
# Efficacy endpoints: The primary efficacy endpoint was hepatic histological improvement in NAS defined as ≥2-point NAS decrease with a ≥1-point reduction in either ballooning or lobular inflammation and no increase in fibrosis stage at 12 months. Secondary efficacy endpoints included (1) NASH resolution defined as hepatocellular ballooning score of 0 and lobular inflammation score of 0-1 with no increase in fibrosis stage at 12 months, (2) fibrosis improvement defined as ≥1-stage decrease in fibrosis with no worsening of lobular inflammation or hepatocellular ballooning, (3) change from baseline in NAFLD activity score (NAS) and each one of its components (steatosis, lobular inflammation and ballooning) at 12 months, and (4) change from baseline in fibrosis score at 12 months. Exploratory efficacy endpoints included shifts in the central histopathologist's NASH diagnosis confirmation, and changes from baseline to 12 months in markers of glycemic control and insulin sensitivity, liver function/injury, and apoptosis and liver fibrosis.
# Using a modified intent-to-treat approach, treated patients were included for analysis in their randomly-assigned treatment groups. Participation of sites with serious GCP or quality concerns were terminated and their data excluded from the analyses. Post-baseline measures through 14 days after the last study drug dose were included. No errors in treatment assignment occurred. […]
# [1] = 125 mg and 250 mg combined vs placebo, 12 months
# [2] = 125 mg and 250 mg combined, 12 months
smiles,measurement,setting,value
COc1cccc(C(=O)COc2ccc(CC3SC(=O)NC3=O)cc2)c1 (stereo not drawn) [MSDC-0602K],confirmed NASH diagnosis at baseline (re-read) not confirmed at 12 months,62.5 mg,32.1%
same,"Fibrosis improvement, adjusted OR","62.5 mg vs placebo, 12 months",1.19
same,"Fibrosis improvement, adjusted risk difference","62.5 mg vs placebo, 12 months",0.028
same,"NAS improvement, adjusted OR","62.5 mg vs placebo, 12 months",0.89
same,"NAS improvement, adjusted risk difference","62.5 mg vs placebo, 12 months",−0.020
same,"NASH resolution, adjusted OR","62.5 mg vs placebo, 12 months",1.09
same,"NASH resolution, adjusted risk difference","62.5 mg vs placebo, 12 months",0.013
same,"Fibrosis improvement, % of patients","62.5 mg, 12 months",(23.8) %
same,"Fibrosis improvement, n/N","62.5 mg, 12 months",20/84
same,"NAS improvement (primary endpoint), n/N","62.5 mg, 12 months",25/84
same,"NASH resolution, % of patients","62.5 mg, 12 months",(20.2) %
same,"NASH resolution, n/N","62.5 mg, 12 months",17/84
same,adjusted mean difference in NAS change to 12 months vs placebo,125 mg,−0.6 points
same,adjusted mean difference in steatosis change to 12 months vs placebo,125 mg,−0.2 points
same,confirmed NASH diagnosis at baseline (re-read) not confirmed at 12 months,125 mg,26.5%
same,"Fibrosis improvement, adjusted OR",[1],1.48
same,"Fibrosis improvement, adjusted risk difference",[1],0.073
same,"NAS improvement, adjusted OR",[1],1.43
same,"NAS improvement, adjusted risk difference",[1],0.075
same,"NASH resolution, adjusted OR",[1],1.66
same,"NASH resolution, adjusted risk difference",[1],0.093
same,"Fibrosis improvement, % of patients",[2],(28.6) %
same,"Fibrosis improvement, n/N",[2],48/168
same,"NAS improvement (primary endpoint), % of patients",[2],(36.3) %
same,"NAS improvement (primary endpoint), n/N",[2],61/168
same,"NASH resolution, % of patients",[2],(29.8) %
same,"NASH resolution, n/N",[2],50/168
same,"Fibrosis improvement, adjusted OR","125 mg vs placebo, 12 months",1.45
same,"Fibrosis improvement, adjusted risk difference","125 mg vs placebo, 12 months",0.067
same,"NAS improvement, adjusted OR","125 mg vs placebo, 12 months",1.22
same,"NAS improvement, adjusted risk difference","125 mg vs placebo, 12 months",0.044
same,"NASH resolution, adjusted OR","125 mg vs placebo, 12 months",1.50
same,"NASH resolution, adjusted risk difference","125 mg vs placebo, 12 months",0.075
same,"Fibrosis improvement, % of patients","125 mg, 12 months",(28.0) %
same,"Fibrosis improvement, n/N","125 mg, 12 months",23/82
same,"NAS improvement (primary endpoint), n/N","125 mg, 12 months",27/82
same,"NASH resolution, % of patients","125 mg, 12 months",(28.0) %
same,"NASH resolution, n/N","125 mg, 12 months",23/82
same,adjusted mean difference in NAS change to 12 months vs placebo,250 mg,−0.5 points
same,adjusted mean difference in steatosis change to 12 months vs placebo,250 mg,−0.3 points
same,confirmed NASH diagnosis at baseline (re-read) not confirmed at 12 months,250 mg,30.2%
same,"Fibrosis improvement, adjusted OR","250 mg vs placebo, 12 months",1.51
same,"Fibrosis improvement, adjusted risk difference","250 mg vs placebo, 12 months",0.077
same,"NAS improvement, adjusted OR","250 mg vs placebo, 12 months",1.64
same,"NAS improvement, adjusted risk difference","250 mg vs placebo, 12 months",0.104
same,"NASH resolution, adjusted OR","250 mg vs placebo, 12 months",1.82
same,"NASH resolution, adjusted risk difference","250 mg vs placebo, 12 months",0.108
same,"Fibrosis improvement, % of patients","250 mg, 12 months",(29.1) %
same,"Fibrosis improvement, n/N","250 mg, 12 months",25/86
same,"NAS improvement (primary endpoint), n/N","250 mg, 12 months",34/86
same,"NASH resolution, % of patients","250 mg, 12 months",(31.4) %
same,"NASH resolution, n/N","250 mg, 12 months",27/86
same,subjects showing NAS histological improvement,62.5 mg,about 17.9%
same,subjects showing NAS histological improvement,250 mg,about 34.5%

# From US20240216344A1, “THIAZOLIDINEDIONE ANALOGS FOR THE TREATMENT OF NAFLD AND METABOLIC DISEASES” (Cirius Therapeutics, Inc., priority 2019, published 2024)
